Assay results reported in PMC6271202, “1,2-Substituted 4-(1H)-Quinolones: Synthesis, Antimalarial and Antitrypanosomal Activities in Vitro” (Molecules, 2014).
Where two headings read alike, the source gives them in different places.

Key:
[1] = test system: T. b. rhodesiense STIB 900 strain; assay: Antitrypanosomal assay in vitro (Alamar Blue); format: cell-based, Trypanosoma brucei rhodesiense; settings: for IC50: Trypanosoma brucei, read-out: IC50 (µM) STIB900; for SI L-6/STIB900: selectivity index, quotient of cytotoxicity and antitrypanosomal IC50 values
Method: (§1) The drug sensitive strain of P. falciparum (NF54) was obtained from Schipol Airport, The Netherlands. […] L-6 cells were derived from rat skeletal myoblasts.
In vitro antitrypanosomal assay was carried out against the bloodstream form of T. b. rhodesiense STIB 900 strain using the Alamar Blue assay. The STIB 900 strain was suspended in fresh medium containing 1% MEM powder medium, MEM non-essential amino acids (100x) supplemented with 25 mM HEPES, additional glucose (1 g/L), 0.2 mM 2-mercaptoethanol, 1.0 mM sodium pyruvate and 15% heat inactivated horse serum. 50 µL (4 × 10^3 trypanosomes/mL) of this suspension was seeded in each well of the 96-well microtiter plate which contained test compounds and the positive control melarsoprol which were dissolved in DMSO and serially diluted to concentrations ranging from […]. The plates were incubated at 37 °C under 5% CO2 atmosphere for 70 h. Alamar Blue solution (10 µL) was added and incubation was continued for further 2–4 h. Plates were read with a Spectramax Gemini XS (Molecular Devices Cooperation, Sunnyvale, CA, USA) at EX/EM (536/588 nm). The IC50 values were calculated by linear regression from the sigmoidal dose inhibition curves using SoftmaxPro software. Tests were carried out two times in triplicate.

[2] = test system: rat skeletal muscle cell (L-6); assay: Cytotoxicity assay (Alamar Blue); format: cell-based; settings: Myoblast, read-out: IC50 (µM) L-6
Method: as §1
96-well plates were seeded with 100 µL of RPMI 1640 medium supplemented with 1% L-glutamine and 10% fetal bovine serum, and rat skeletal muscle cell (L-6) (4 × 10^3/mL). The 4-(1H)-quinolone derivatives and the positive control podophyllotoxin were dissolved in DMSO and with a serial dilution ranging from […] were added into the wells in triplicate. The plates were incubated for 70 h and assessed microscopically for cell growth. Alamar Blue solution (10 µL) was then added to each well and incubation continued for 2 h before reading with a Spectramax Gemini XS at EX/EM 536/588. The IC50 values were calculated by linear regression from the sigmoidal dose inhibition curves using SoftmaxPro software. Tests were carried out two times in triplicate.

[3] = test system: P. falciparum NF54; assay: Antimalarial assay in vitro (3H-hypoxanthine microculture radioisotope technique); format: cell-based, Plasmodium falciparum; settings: for IC50: Plasmodium falciparum, read-out: IC50 (µM) NF54; for SI L-6/NF54: selectivity index, quotient of L-6 cytotoxicity IC50 and NF54 IC50
Method: as §1
Antimalarial activity in vitro was determined by means of the microculture radioisotope technique which makes use of ^3H-hypoxanthine as an indicator of parasite viability. In this assay the drug sensitive NF54 strain was employed. Parasite cultures supplemented with HEPES (5.94 g/L), NaHCO3 (2.1 g/L), neomycin (100 U/mL), Albumax® (5 g/L) and washed human red cells A^+ at 2.5% haematocrit (0.3% parasitaemia) were incubated in RPMI 1640 medium without hypoxanthine and placed in the 96-well plates. Solutions of 4-(1H)-quinolone derivatives and the positive control chloroquine were dissolved in DMSO at 10 mg/mL and added to the first well followed by serial dilution to afford test concentrations ranging from 100 to 0.002 mg/L. After 48 h incubation at 37 °C, 4% CO2, 3% O2, 93% N2, ^3H-hypoxyanthine was added (0.5 µC/well) and then the plates were incubated further for 24 h under the same condition. The plates were freeze/thawed rapidly, harvested on glass fibre filters and dried. Radioactive hypoxanthine uptake was measured by scintillation counter. IC50 values were calculated from sigmoidal inhibition curves by linear regression using Microsoft Excel. Assays were carried out two times in triplicate.

[4] = bloodstream form T. b. rhodesiense STIB 900, 70 h incubation
[5] = L-6 rat skeletal myoblasts, 70 h incubation
[6] = chloroquine sensitive strain P. falciparum NF54, 72 h total incubation

IC50 [3, 6]	IC50 ([3]; NF54, 72 h)	Structure (SMILES)	IC50 [1, 4]	SI L-6/STIB900 [1]	IC50 [2, 5]	SI L-6/NF54 [3]	IC50 ([1]; 70 h)	loss in potency compared to 29 ([3]; antimalarial potency, P. falciparum NF54, hydrogenation of the alkenyl chain of 29)	IC50 ([2]; Rattus norvegicus, 70 h)
1.99 µM	–	CC1=C(/C=C/c2cc(=O)c3ccccc3n2CCBr)C(C)(C)CCC1 [Compound 21, 1-(2-Bromoethyl)-2-[(1′E)-2′-(2′′,6′′,6′′-trimethyl-1′′-cyclohexen-1′′-yl)ethenyl]-4-(1H)-quinol-one]	8.85 µM	3.76	33.2 µM	16.65	–	–	–
1.19 µM	–	CCCCCCCCCCCC/C=C/c1cc(=O)c2ccccc2n1CCC [Compound 18f]	19.1 µM	0.68	13 µM	10.99	–	–	–
0.39 µM	–	CCCCCCCCCC=CCCCCc1cc(=O)c2ccccc2n1C [Compound 29]	10.8 µM	–	13.2 µM	33.84	–	–	–
10.1 µM	–	Cn1c(CCCCC=C2CCCCCC2)cc(=O)c2ccccc21 [Compound 31]	14.4 µM	3.19	45.8 µM	4.52	–	–	–
–	–	Nc1nc(N)nc(Nc2ccc([As]3SCC(CO)S3)cc2)n1 (stereo not drawn) [Melarsoprol, reference compound]	–	–	–	–	0.0075 µM	–	–
2.29 µM	–	CCCCCCCCCCCC/C=C/c1cc(=O)c2ccccc2n1CCCC [Compound 18g]	18.7 µM	0.70	13.3 µM	5.79	–	–	–
0.84 µM	–	CCCCCCCCCCCCC#Cc1cc(=O)c2ccccc2n1C [Compound 35]	10.5 µM	1.50	15.8 µM	18.78	–	–	–
2.3 µM	–	CCCCCCCCCC/C=C/c1cc(=O)c2ccccc2n1CCBr [Compound 18b]	8.28 µM	4.63	38.4 µM	16.69	–	–	–
1.35 µM	–	CN1CCN(CCCCCCCCC/C=C/c2cc(=O)c3ccccc3n2C)CC1 [Compound 20, 1-Methyl-2-[(1′E)-11′(N-methylpiperazinyl)undecenyl]-4-(1H)-quinolone]	4.94 µM	6.59	32.5 µM	24.14	–	–	–
0.82 µM	–	Cn1c(-c2ccc(CCCCCCCCCCN3CCCCC3)cc2)cc(=O)c2ccccc21 [Compound 5b, 1-Methyl-2-[4′-(10′′-piperidinyldecyl)phenyl]-4-(1H)-quinolone]	3.41 µM	2.83	9.63 µM	11.73	–	–	–
0.69 µM	–	Cn1c(/C=C/CCCCCCCCCBr)cc(=O)c2ccccc21 [Compound 19]	1.07 µM	–	36.3 µM	52.64	–	–	–
–	0.0063 µM	CCN(CC)CCCC(C)Nc1ccnc2cc(Cl)ccc12 (stereo not drawn) [Chloroquine, reference compound]	–	–	–	–	–	–	–
0.47 µM	–	CCCOc1ccc(/C=C/c2cc(=O)c3cc(Cl)ccc3n2C)cc1 [Compound 10b, 6-Chloro-1-methyl-2-[(1′E)-(4′′-propoxyphenyl)ethenyl]-4-(1H)-quinolone]	21.9 µM	7.36	161 µM	342.89	–	–	–
0.09 µM	–	Cn1c(-c2ccc(CCCCCCBr)cc2)cc(=O)c2ccccc21 [Compound 5a, 1-Methyl-2-[4′-(6′′-bromohexyl)phenyl]-4(1H)-quinolone]	1.64 µM	4.04	6.63 µM	–	–	–	–
12.4 µM	–	CCCCCCCCC/C=C/c1cc(=O)c2ccccc2n1C [Compound 18a]	52.2 µM	0.86	44.7 µM	3.61	–	–	–
0.45 µM	–	CCCCCCCCCCC#CCCc1cc(=O)c2ccccc2n1CC [Compound 36b]	16.6 µM	0.82	13.6 µM	29.82	–	–	–
1.58 µM	–	CCCOc1ccc(/C=C/c2cc(=O)c3ccccc3n2CCBr)cc1 [Compound 10a, 1-(2-Bromoethyl)-2-[(1′E)-(4′′-propoxyphenyl)ethenyl]-4-(1H)-quinolone]	1.25 µM	–	25.8 µM	16.45	–	–	–
3.11 µM	–	CCCCCCCCCCC#CCCc1cc(=O)c2ccccc2n1C [Compound 36a]	33.5 µM	0.39	13.3 µM	4.29	–	–	–
1.56 µM	–	CCCCCOc1ccc(/C=C/c2cc(=O)c3ccccc3n2CCBr)cc1 [Compound 11]	3.82 µM	11.10	42.4 µM	27.11	–	–	–
4.64 µM	–	C#CCn1c(/C=C/CCCCCCCCCCCC)cc(=O)c2ccccc21 [Compound 18d]	24.5 µM	1.01	24.7 µM	5.32	–	–	–
0.31 µM	–	C=CCn1c(/C=C/CCCCCCCCCCCC)cc(=O)c2ccccc21 [Compound 18e]	8.18 µM	1.71	14 µM	45.78	–	–	–
6.4 µM	–	CCCCCCCCCCCCCCCc1cc(=O)c2ccccc2n1C [Compound 30]	42.4 µM	2.39	101 µM	15.91	–	16 fold	–
–	–	COc1cc([C@@H]2c3cc4c(cc3[C@H](O)[C@H]3COC(=O)[C@H]23)OCO4)cc(OC)c1OC [Podophyllotoxin, reference compound]	–	–	–	–	–	–	0.017 µM
15.3 µM	–	CCCCCC/C=C\CCc1cc(=O)c2ccccc2n1C [Compound 28]	11 µM	4.48	49.5 µM	3.22	–	–	–
